# Measured values from US12138140B2, “Wound covering for wound monitoring and therapeutic agent delivery” (UVic Industry Partnerships Inc., priority 2017, dated 2024).
# Legend:
# [1] = tested on: P. aeruginosa; test: semi quantitative bacteria inhibition assay of drug-eluting scaffolds on agar plate; assay type: cell-based, Pseudomonas aeruginosa; details: 3 mg/ml dosage
# Protocol: To examine the antibacterial effectiveness of the drug-eluting scaffolds, a semi quantitative bacteria inhibition assay was performed using P. aeruginosa. […] Scaffolds with no drugs and filter paper impregnated with the same amount of drugs were used as negative and positive controls, respectively. Gentamicin is widely used as an effective antibiotic agent against a wide range of Gram-negative and Gram-positive bacteria, including P. aeruginosa (25-27). […] The observed white ring around the scaffold within the inhibited zone was suspected to be infected by the bacteria. Therefore, we collected swab samples from three different zones near the scaffold (point 1), in the white region (point 2), and at the edge of the ring (point 3), then plated the samples overnight on another agar plate. […] The formation of the white ring around the scaffold can be attributed to the interaction of the phosphate ions in the agar and calcium ions that were releasing from the calcium alginate scaffolds.
# Bacteria viability loss assay: Drug-eluting scaffolds were embedded in alginate patches as described previously; patches were then placed on top of a Tryptic soy agar (TSA, Sigma-Aldrich) plate on which Pseudomonas aeruginosa bacteria were spread and the effect of the antimicrobial was investigated after incubation at 37° C. for 18 hr.
# [2] = antibacterial efficiency of UV-sterilized gentamicin versus drug not treated with UV; assay type: cell-based; details: UV 365 nm, 200 mW/cm^2
# From the text: In a representative example, multifunctional dressings were made according to the embodiments described herein comprising an array of porous color-changing pH sensors (e.g., the sensing elements 14) and drug-eluting scaffolds (e.g., the therapeutic agent delivery elements 16), which were embedded within an alginate dressing (FIG. 16A). The array of porous sensors (each sensor was 12×12 mm in size) comprised three-dimensionally (3D)-printed color-changing alginate fibers that were loaded with mesoporous resin beads doped with a pH-responsive dye (FIGS. 16A-16G). Alginate is a naturally-derived polysaccharide that can be used as a dressing material for epidermal applications due to its biocompatibility, hemostatic properties, and non-adhesive characteristics that facilitate the removal of the dressing without trauma and pain (14-18). With reference to FIG. 6A and FIGS. 16B and 16C, to print the sensors, a microextruder 60 comprising two coaxial needles 62 and 64 (FIG. 16C and FIGS. 22A-22B) mounted on a 3D printer (e.g., a Prusa i3) was used. The porosity of the sensors was adjusted by changing the diameter of the fibers while keeping the spacing between fibers constant. Encapsulation of the beads within the hydrogel fibers prevented the beads from dispersing in the wound area while providing a biocompatible interface with the wound site. […]
# [3] = dehydration test (weight loss over time); assay type: physicochemical; details: glycerol added to alginate
# Protocol: One of the main advantages of using hydrogels as a substrate for wound dressings is their ability to retain moisture at the wound site. However, hydrogels may be prone to rapid dehydration, which can compromise the integrity of the dressing and ultimately affect its functionality. Rapid dehydration of the hydrogels can pose a challenge for the clinical application of gel-based dressings. The dehydration rate of the dermal patch was evaluated by measuring its weight loss at 37° C. and it was observed that the alginate patch was completely dehydrated in less than 10 hr (FIG. 26A). Influential parameters on dehydration rates including alginate concentration and dressing thickness were altered for these experiments. […]
# The effect of Mepitel® on the dehydration rate of the hydrogel dressing was studied. Dressings with 2% w/v alginate were covered by Mepitel® and their weight were measured in 24 hr. […]
# Dehydration and hydration tests: Square gel sheets (15 mm×15 mm) made of two different concentrations of alginate (2% and 6% w/v) and two different thicknesses (1.5 mm and 3 mm) were fabricated by crosslinking with agarose sheets containing CaCl2 similar to preparation of the patches. […] The weight was then recorded during definite time intervals for 3 hours and the degree of swelling was then obtained by determining the gained weight for each sample.
Compound,effectiveness of topical delivery in the in vitro inhibition assay [1],impact of UV exposure on antibacterial efficiency of the drug [2],reduction of dehydration rate [3]
gentamicin sulfate,demonstrated the effectiveness,no impact,
OCC(O)CO [glycerol],,,30%
